Results as given in ChEMBL document CHEMBL3045199, “Synthesis of some (E)-6-[2-(furan-2-yl)ethenyl]-1,2,4-triazin-5-ones and their biological evaluation as antitumor agents” (2013).

Columns and labels:
Assay type in all cases: functional
KM12 = assay: Cytotoxicity against Homo sapiens (human) KM12 cells assessed as growth inhibition at 10 uM after 24 hr; conditions: KM12, 24 h, read-out: GI
MOLT-4 = assay: Cytotoxicity against Homo sapiens (human) MOLT4 cells assessed as growth inhibition at 10 uM after 24 hr; conditions: MOLT-4, 24 h, read-out: GI
CAKI-1 = assay: Cytotoxicity against Homo sapiens (human) Caki1 cells assessed as growth inhibition at 10 uM after 24 hr; conditions: CAKI-1, 24 h, read-out: GI
SNB-19 = assay: Cytotoxicity against Homo sapiens (human) SNB19 cells assessed as growth inhibition at 10 uM after 24 hr; conditions: SNB-19, 24 h, read-out: GI
SK-MEL-5 = assay: Cytotoxicity against Homo sapiens (human) SK-MEL-5 cells assessed as growth inhibition at 10 uM after 24 hr; conditions: SK-MEL-5, 24 h, read-out: GI
PC-3 = assay: Cytotoxicity against Homo sapiens (human) PC3 cells assessed as growth inhibition at 10 uM after 24 hr; conditions: PC-3, 24 h, read-out: GI
HCC 2998 = assay: Cytotoxicity against Homo sapiens (human) HCC2998 cells assessed as growth inhibition at 10 uM after 24 hr; conditions: HCC 2998, 24 h, read-out: GI
SNB-75 = assay: Cytotoxicity against Homo sapiens (human) SNB75 cells assessed as growth inhibition at 10 uM after 24 hr; conditions: SNB-75, 24 h, read-out: GI
UACC-257 = assay: Cytotoxicity against Homo sapiens (human) UACC257 cells assessed as growth inhibition at 10 uM after 24 hr; conditions: UACC-257, 24 h, read-out: GI
HOP-92 = assay: Cytotoxicity against Homo sapiens (human) HOP92 cells assessed as growth inhibition at 10 uM after 24 hr; conditions: HOP-92, 24 h, read-out: GI
SK-OV-3 = assay: Cytotoxicity against Homo sapiens (human) SKOV3 cells assessed as growth inhibition at 10 uM after 24 hr; conditions: SK-OV-3, 24 h, read-out: GI
A549 = assay: Cytotoxicity against Homo sapiens (human) A549/ATCC cells assessed as growth inhibition at 10 uM after 24 hr; conditions: A549, 24 h, read-out: GI
UO-31 = assay: Cytotoxicity against Homo sapiens (human) UO31 cells assessed as growth inhibition at 10 uM after 24 hr; conditions: UO-31, 24 h, read-out: GI
NCI-H322M = assay: Cytotoxicity against Homo sapiens (human) NCI-H322M cells assessed as growth inhibition at 10 uM after 24 hr; conditions: read-out: GI
EKVX = assay: Cytotoxicity against Homo sapiens (human) EKVX cells assessed as growth inhibition at 10 uM after 24 hr; conditions: read-out: GI
[1] = Cytotoxicity against Homo sapiens (human) leukemia cells after 48 hr by SRB assay; conditions: Leukemia cell
SF-539 = assay: Cytotoxicity against Homo sapiens (human) SF539 cells assessed as growth inhibition at 10 uM after 24 hr; conditions: SF-539, 24 h, read-out: GI
T47D = assay: Cytotoxicity against Homo sapiens (human) T47D cells assessed as growth inhibition at 10 uM after 24 hr; conditions: read-out: GI
U-251 = assay: Cytotoxicity against Homo sapiens (human) U251 cells assessed as growth inhibition at 10 uM after 24 hr; conditions: U-251, 24 h, read-out: GI
OVCAR-8 = assay: Cytotoxicity against Homo sapiens (human) OVCAR8 cells assessed as growth inhibition at 10 uM after 24 hr; conditions: OVCAR-8, 24 h, read-out: GI
[2] = Cytotoxicity against Homo sapiens (human) NCI-ADR-RES cells after 48 hr by SRB assay
IGROV-1 = assay: Cytotoxicity against Homo sapiens (human) IGROV1 cells assessed as growth inhibition at 10 uM after 24 hr; conditions: IGROV-1, 24 h, read-out: GI
NCI-H23 = assay: Cytotoxicity against Homo sapiens (human) NCI-H23 cells assessed as growth inhibition at 10 uM after 24 hr; conditions: NCI-H23, 24 h, read-out: GI
MDA-MB-435 = assay: Cytotoxicity against Homo sapiens (human) MDA-MB-435 cells assessed as growth inhibition at 10 uM after 24 hr; conditions: MDA-MB-435, 24 h, read-out: GI
SF-295 = assay: Cytotoxicity against Homo sapiens (human) SF295 cells assessed as growth inhibition at 10 uM after 24 hr; conditions: SF-295, 24 h, read-out: GI
[3] = Cytotoxicity against Homo sapiens (human) prostate cancer cells after 48 hr by SRB assay; conditions: Cancer cell lines
[4] = Cytotoxicity against Homo sapiens (human) melanoma cells after 48 hr by SRB assay; conditions: Melanoma cell
[5] = Cytotoxicity against Homo sapiens (human) renal cancer cells after 48 hr by SRB assay; conditions: Cancer cell lines
A498 = assay: Cytotoxicity against Homo sapiens (human) A498 cells assessed as growth inhibition at 10 uM after 24 hr; conditions: A498, 24 h, read-out: GI
SR = assay: Cytotoxicity against Homo sapiens (human) SR cells assessed as growth inhibition at 10 uM after 24 hr; conditions: read-out: GI
DU-145 = assay: Cytotoxicity against Homo sapiens (human) DU145 cells assessed as growth inhibition at 10 uM after 24 hr; conditions: DU-145, 24 h, read-out: GI
SF-268 = assay: Cytotoxicity against Homo sapiens (human) SF268 cells assessed as growth inhibition at 10 uM after 24 hr; conditions: SF-268, 24 h, read-out: GI
ACHN = assay: Cytotoxicity against Homo sapiens (human) ACHN cells assessed as growth inhibition at 10 uM after 24 hr; conditions: read-out: GI
[6] = Cytotoxicity against Homo sapiens (human) colon cancer cells after 48 hr by SRB assay; conditions: Cancer cell lines
[7] = Cytotoxicity against Homo sapiens (human) non-small cell lung cancer cells after 48 hr by SRB assay; conditions: Cancer cell lines
RXF 393 = assay: Cytotoxicity against Homo sapiens (human) RXF393 cells assessed as growth inhibition at 10 uM after 24 hr; conditions: RXF 393, 24 h, read-out: GI
OVCAR-4 = assay: Cytotoxicity against Homo sapiens (human) OVCAR4 cells assessed as growth inhibition at 10 uM after 24 hr; conditions: OVCAR-4, 24 h, read-out: GI
MDA-MB-468 = assay: Cytotoxicity against Homo sapiens (human) MDA-MB-468 cells after 48 hr by SRB assay; conditions: MDA-MB-468, 48 h
[8] = read-out: LC50 (the source's name)

`Nc1cc(-c2ccc(Cl)cc2)nn1-c1nc(=O)c(/C=C/c2ccco2)n[nH]1` gave an inhibition of growth at 10 µM (KM12) of 44%, an inhibition of growth at 10 µM (MOLT-4) of 55.6% and an inhibition of growth at 10 µM (CAKI-1) of 99%. The inhibition of growth at 10 µM (SNB-19) was 42.4%, the inhibition of growth at 10 µM (SK-MEL-5) was 54% and the inhibition of growth at 10 µM (PC-3) was 47.4%. For the same molecule, the inhibition of growth at 10 µM (HCC 2998) was 51.5%, the inhibition of growth at 10 µM (SNB-75) was 32.6% and the inhibition of growth at 10 µM (UACC-257) was 30.4%. For the same molecule, the inhibition of growth at 10 µM (HOP-92) was 39.7%, the inhibition of growth at 10 µM (SK-OV-3) was 39.3% and the inhibition of growth at 10 µM (A549) was 62.7%. It also gave an inhibition of growth at 10 µM (UO-31) of 96.1%, an inhibition of growth at 10 µM (NCI-H322M) of 75.6% and an inhibition of growth at 10 µM (EKVX) of 58.3%. For the same molecule, the GI50 [1] was 2.71 µM, the TGI [1] was 17.9 µM and the CC50 [1, 8] was > 100 µM. It also gave an inhibition of growth at 10 µM (SF-539) of 44.6%, an inhibition of growth at 10 µM (T47D) of 37.3% and an inhibition of growth at 10 µM (U-251) of 49.4%. The inhibition of growth at 10 µM (OVCAR-8) was 75.2%, the GI50 [2] was 1.23 µM and the TGI [2] was 8.11 µM. The CC50 [2, 8] was 96.4 µM, the inhibition of growth at 10 µM (IGROV-1) was 65% and the inhibition of growth at 10 µM (NCI-H23) was 41.2%. The inhibition of growth at 10 µM (MDA-MB-435) was 37.2%, the inhibition of growth at 10 µM (SF-295) was 90.1% and the GI50 [3] was 4.3 µM. For the same molecule, the TGI [3] was 40.1 µM, the CC50 [3, 8] was 50 µM and the GI50 [4] was 6.7 µM. For the same molecule, the TGI [4] was 59.3 µM, the CC50 [4, 8] was > 100 µM and the GI50 [5] was 5.85 µM. The TGI [5] was 37.4 µM, the CC50 [5, 8] was > 100 µM and the inhibition of growth at 10 µM (A498) was 66.2%. The inhibition of growth at 10 µM (SR) was 61.9%, the inhibition of growth at 10 µM (DU-145) was 36.7% and the inhibition of growth at 10 µM (SF-268) was 47.5%. It also gave an inhibition of growth at 10 µM (ACHN) of 70.6%, a GI50 [6] of 4.27 µM and a TGI [6] of 22 µM. The CC50 [6, 8] was > 100 µM, the GI50 [7] was 4.47 µM and the TGI [7] was 41.1 µM. The CC50 [7, 8] was > 100 µM, the inhibition of growth at 10 µM (RXF 393) was 32.2% and the inhibition of growth at 10 µM (OVCAR-4) was 70.9%. For the same molecule, the GI50 (MDA-MB-468) was 3.08 µM, the TGI (MDA-MB-468) was 22.2 µM and the CC50 (MDA-MB-468; [8]) was > 100 µM.
